Counter-ions that a name gives are not always drawn.
Assays:
CDK9 = CDK9 (Homo sapiens, UniProt P50750); assay: In-vitro kinase inhibitory activity, CDK9 (selectivity); format: biochemical; details: read-out: IC50 (half maximal inhibitory concentration, nM) CDK9
CDK6/CyclinD3 = molecular target: T1, CDK6/CyclinD3 (Homo sapiens, UniProt Q00534); assay: In-vitro kinase inhibitory activity, CDK6/CyclinD3 (Caliper EZ Reader II mobility shift); format: biochemical; details: CDK6/CyclinD3 20 nM, ATP 2 mM, Peptide 1 μM, 27° C., 120 min; read-out: IC50 (half maximal inhibitory concentration, nM) CDK6
T1 construct: purchased Wuxi Biortus Biosciences Co. Ltd
T1 sequence (Q00534 whole entry, species assumed): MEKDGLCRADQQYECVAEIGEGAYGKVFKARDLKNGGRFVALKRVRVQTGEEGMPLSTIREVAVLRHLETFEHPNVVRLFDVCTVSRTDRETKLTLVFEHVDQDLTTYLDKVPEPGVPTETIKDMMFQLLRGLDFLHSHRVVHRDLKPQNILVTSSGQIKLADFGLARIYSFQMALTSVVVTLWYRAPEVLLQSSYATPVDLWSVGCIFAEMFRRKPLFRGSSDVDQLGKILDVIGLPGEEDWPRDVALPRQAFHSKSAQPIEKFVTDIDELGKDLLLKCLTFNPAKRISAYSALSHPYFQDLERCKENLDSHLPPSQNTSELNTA
T1 sequence (P30281 whole entry partner, species assumed): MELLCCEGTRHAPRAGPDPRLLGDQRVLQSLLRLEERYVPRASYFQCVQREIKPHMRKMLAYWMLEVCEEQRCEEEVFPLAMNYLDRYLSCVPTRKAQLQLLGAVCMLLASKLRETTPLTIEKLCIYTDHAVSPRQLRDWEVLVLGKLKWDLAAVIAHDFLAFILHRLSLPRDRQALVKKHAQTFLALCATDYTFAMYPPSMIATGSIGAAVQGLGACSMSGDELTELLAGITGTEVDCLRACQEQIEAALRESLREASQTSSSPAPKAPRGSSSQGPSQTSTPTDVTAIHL
Description: The final volume for assay was 16 μL, and the reaction temperature was 27° C. […] The compound was dissolved in dimethyl sulfoxide (DMSO) to reach a concentration of 10 mM. […] 2 μL of the test compound solution was mixed with 5 μL of the kinase solution, and the mixture was incubated for 10 min. 5 μL of the mixed solution of the polypeptide substrate and ATP was then added. The mixture was incubated at 27° C. for 120 min, and then the reaction was terminated by adding 4 μL of EDTA with a concentration of 120 mM to each sample. […] Each assay was conducted in at least two replicates.
(§1) The final concentrations of the reagents in the assay were as follows. […] The reaction mixture was analyzed on a Caliper EZ Reader II by electrophoretic separation of the fluorescent substrate and the phosphorylated product. Data were calculated by using GraphPad Prism version 6.0 and IC50 values were obtained by adjusting the non-linear regression models of the dose response curves.

CRBN = molecular target: T2, CRBN (Homo sapiens, UniProt Q96SW2); assay: In-vitro inhibition assay of CRBN activity (fluorescence polarization, Cy5-Thalidomide); format: binding; details: Cy5-Thalidomide 10 nM, CRBN 180 nM, 27° C., 60 min
T2 construct: purchased Wuxi Biortus Biosciences Co. Ltd
T2 sequence (Q96SW2 whole entry, species assumed): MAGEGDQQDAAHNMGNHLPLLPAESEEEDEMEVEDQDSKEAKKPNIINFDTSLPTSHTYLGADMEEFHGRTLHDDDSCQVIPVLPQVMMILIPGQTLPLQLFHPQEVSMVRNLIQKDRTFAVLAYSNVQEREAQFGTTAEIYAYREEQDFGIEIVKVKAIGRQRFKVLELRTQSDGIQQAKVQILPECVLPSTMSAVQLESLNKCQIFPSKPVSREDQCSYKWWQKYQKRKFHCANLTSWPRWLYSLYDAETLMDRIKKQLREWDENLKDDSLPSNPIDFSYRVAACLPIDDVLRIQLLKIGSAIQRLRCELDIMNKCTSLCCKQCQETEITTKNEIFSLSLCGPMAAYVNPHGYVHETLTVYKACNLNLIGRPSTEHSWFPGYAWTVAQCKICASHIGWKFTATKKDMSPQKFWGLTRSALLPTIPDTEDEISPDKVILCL
Description: The final volume for assay was 20 μL, and the reaction temperature was 27° C. CRBN was produced by Wuxi Biortus Biosciences Co. Ltd. The concentration of the kinase was determined by the optimization experiment, and the kinase was diluted with an assay buffer (50 mM Tris, pH 7.5, 100 mM NaCl, and 0.01% Pluronic acid) to obtain a corresponding kinase solution (2× concentration). The compound was dissolved in dimethyl sulfoxide (DMSO) to reach a concentration of 10 mM. […] 5 μL of the test compound solution was mixed with 5 μL of the substrate solution, and 10 μL of the kinase solution was added to the mixture. The mixture was incubated at 27° C. for 60 min. Each assay was conducted in at least two replicates. […].
The final concentrations of the reagents in the assay were as follows. […] The data of fluorescence polarization assay were read on TECAN infinite M1000. Data were calculated by using GraphPad Prism version 6.0, and IC50 values were obtained by adjusting the non-linear regression models of the dose response curves.

CDK2 = CDK2 (Homo sapiens, UniProt P24941); assay: In-vitro kinase inhibitory activity, CDK2 (selectivity); format: biochemical; details: read-out: IC50 (half maximal inhibitory concentration, nM) CDK2
CDK4/CyclinD3 = molecular target: T3, CDK4/CyclinD3 (Homo sapiens, UniProt P11802); assay: In-vitro kinase inhibitory activity, CDK4/CyclinD3 (Caliper EZ Reader II mobility shift); format: biochemical; details: CDK4/CyclinD3 20 nM, ATP 2 mM, Peptide 1 μM, 27° C., 180 min; read-out: IC50 (half maximal inhibitory concentration, nM) CDK4
T3 construct: purchased Wuxi Biortus Biosciences Co. Ltd
T3 sequence (P11802 whole entry, species assumed): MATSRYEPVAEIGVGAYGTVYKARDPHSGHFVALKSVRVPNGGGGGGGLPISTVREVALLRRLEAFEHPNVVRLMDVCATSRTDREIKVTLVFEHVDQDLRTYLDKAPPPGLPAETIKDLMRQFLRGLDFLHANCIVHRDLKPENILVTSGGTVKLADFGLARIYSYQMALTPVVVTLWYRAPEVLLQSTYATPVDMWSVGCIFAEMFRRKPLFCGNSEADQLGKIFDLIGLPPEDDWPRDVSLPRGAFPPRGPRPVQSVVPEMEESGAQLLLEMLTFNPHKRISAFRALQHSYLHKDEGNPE
T3 sequence (P30281 whole entry partner, species assumed): as the sequence (P30281 whole entry partner, species assumed) above
Description: The final volume for assay was 16 μL, and the reaction temperature was 27° C. CDK4/CyclinD3 was produced by Wuxi Biortus Biosciences Co. Ltd. The concentration of the kinase was determined by the results of the optimization experiment. The kinase was diluted with an assay buffer (50 mM Tris HCl pH 8.0, 0.01% Tween 20, 50 μg/mL BSA, and 5 mM MgCl2) to obtain a corresponding kinase solution (2.4× concentration). The compound was dissolved in dimethyl sulfoxide (DMSO) to reach a concentration of 10 mM. […] 2 μL of the test compound solution was mixed with 5 μL of the kinase solution, and the mixture was incubated for 10 min. 5 μL of the mixed solution of the polypeptide substrate and ATP was then added. The mixture was incubated at 27° C. for 180 min, and then the reaction was terminated by adding 4 μL of EDTA with a concentration of 120 mM to each sample. […] Each assay was conducted in at least two replicates.
as §1

[1] = tested on: human colon cancer COLO205 cells; assay: Growth inhibition of tumor cells cultured in vitro, CellTiter-Glo, COLO205; format: cell-based; details: Homo sapiens, COLO 205, 72 h, COLO205, 72 h, CellTiter-Glo
From the text: (§2) Test drugs: Compounds of the present disclosure. Tumor cell strains: human colon cancer COLO205 cells and human breast cancer MCF-7 cells.
(§3) The growth inhibitory effects on human tumor cells COLO205 and MCF-7 cultured in vitro were observed by using a CellTiter-Glo Luminescent Cell Viability Assay Kit (Promega, Cat. No. G7572). Human tumor cells COLO205 and MCF-7 were both purchased from the American Type Culture Collection.
(§4) CellTiter-Glo Luminescent Cell Viability Assay: The previous cell culture medium was discarded, and the tumor cells were rinsed twice with PBS. An appropriate amount of trypsin (VWR, Cat. No. 0458-25G) was added to digest the tumor cells until most of the cells turned round and were detached from the wall. The trypsin digestion was terminated by adding an RPMI-1640 medium (COLO205; Gibco, Cat. No. A10491-01) containing 10% fetal bovine serum (Hyclone, Cat. No. SV30160.03) and MEM medium (MCF-7; Gibco, Cat. No. 10370-021) containing 10% fetal bovine serum and 0.01 mg/mL insulin, and the cells were gently pipetted with a pipette to completely suspend the tumor cells. After cell counting, a tumor cell suspension was prepared using a complete culture medium and the final concentration was 6.7×10^4 cells/mL. 90 μL of the tumor cell suspension was seeded in each well of a 96-well culture plate (6000 cells/well). The plate was then placed in an incubator with 5% CO2 at 37° C. and incubated for 24 h. A test drug was added by using an Agilent Bravo Automated Liquid Handling Platform, and 10 μL of the sample was added in each well. The assay was conducted in triplicate for each group. A compound of the present disclosure was dissolved in DMSO (BioRoYee, Cat. No. AF0231), and then the resulting solution was diluted to 10 μM/L, 3.33 μM/L, 1.11 μM/L, 0.37 μM/L, 0.123 μM/L, 0.041 μM/L, 0.0137 μM/L, 0.0046 μM/L, and 0.0015 μM/L with the culture medium. The concentration of DMSO was lower than 0.1%, and a culture medium containing 0.1% DMSO was added to the well which was set as a vehicle control group. The 96-well plate was placed in an incubator with 5% CO2 at 37° C. and incubated for 72 h. The 96-well plate to be tested was equilibrated at room temperature for 30 min, and 100 μL of Cell Titer-Glo reagent was added to each well. The contents of each well were mixed in an orbital shaker for 2 min to induce cell lysis, and the plate was incubated at room temperature for 10 min to achieve a constant value of fluorescent intensity. Finally, the chemiluminescence intensity was detected by TECAN M1000. Data were processed with Graphpad Prism 6.0 software. The growth curve of the cells was plotted. The cell growth inhibition rate of a drug was calculated, and the half maximal inhibitory concentration (IC50) of the drug was determined.

[2] = tested on: human breast cancer MCF-7 cells; assay: Growth inhibition of tumor cells cultured in vitro, CellTiter-Glo, MCF-7; format: cell-based; details: MCF-7, 72 h, CellTiter-Glo
From the text: as §2, §3, §4

Sequence of CDK9 (P50750 whole entry, species assumed): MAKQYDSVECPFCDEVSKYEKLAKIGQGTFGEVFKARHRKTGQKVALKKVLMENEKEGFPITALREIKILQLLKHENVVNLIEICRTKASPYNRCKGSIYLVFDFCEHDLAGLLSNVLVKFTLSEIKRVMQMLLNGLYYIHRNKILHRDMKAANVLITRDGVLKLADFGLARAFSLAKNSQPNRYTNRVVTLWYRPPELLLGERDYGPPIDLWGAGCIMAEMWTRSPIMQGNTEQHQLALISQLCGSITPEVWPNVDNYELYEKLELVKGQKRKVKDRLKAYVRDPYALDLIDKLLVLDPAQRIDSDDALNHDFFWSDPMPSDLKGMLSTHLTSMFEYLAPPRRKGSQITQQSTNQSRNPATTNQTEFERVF
Sequence of CDK9 (O60563 whole entry partner, species assumed): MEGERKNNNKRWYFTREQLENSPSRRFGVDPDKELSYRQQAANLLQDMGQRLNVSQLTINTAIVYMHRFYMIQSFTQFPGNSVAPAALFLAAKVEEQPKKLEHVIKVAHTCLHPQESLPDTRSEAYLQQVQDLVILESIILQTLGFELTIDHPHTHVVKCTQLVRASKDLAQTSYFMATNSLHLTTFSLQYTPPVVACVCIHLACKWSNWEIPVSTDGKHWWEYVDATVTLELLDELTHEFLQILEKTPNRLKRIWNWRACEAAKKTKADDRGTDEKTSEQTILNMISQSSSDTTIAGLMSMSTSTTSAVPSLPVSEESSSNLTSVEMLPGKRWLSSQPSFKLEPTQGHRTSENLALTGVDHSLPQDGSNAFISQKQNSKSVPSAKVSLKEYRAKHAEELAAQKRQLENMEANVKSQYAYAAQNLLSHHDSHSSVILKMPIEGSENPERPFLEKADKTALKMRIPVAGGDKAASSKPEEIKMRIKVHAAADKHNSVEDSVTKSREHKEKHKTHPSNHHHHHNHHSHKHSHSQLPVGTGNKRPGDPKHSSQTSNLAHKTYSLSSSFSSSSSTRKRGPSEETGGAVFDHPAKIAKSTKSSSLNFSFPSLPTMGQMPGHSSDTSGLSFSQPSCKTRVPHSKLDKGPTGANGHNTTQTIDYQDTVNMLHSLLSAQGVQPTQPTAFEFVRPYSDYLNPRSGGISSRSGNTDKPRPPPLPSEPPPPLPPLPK

Structure (SMILES)	IC50 (CDK9)	IC50 (CDK6/CyclinD3)	IC50 (CRBN)	IC50 (CDK2)	IC50 (CDK4/CyclinD3)	IC50 [1]	IC50 ([2]; Homo sapiens, MCF7, 72 h)	IC50 [2]
CC(=O)c1c(C)c2cnc(Nc3ccc(N4CCN(CCN5CCC(CC6CCN(c7ccc8c(c7)CN(C7CCC(=O)NC7=O)C8=O)CC6)CC5)CC4)cn3)nc2n(C2CCCC2)c1=O (stereo not drawn) [Compound 10, 3-(5-(4-((1-(2-(4-(6-((6-acetyl-8-cyclopentyl-5-methyl-7-oxo-7,8-dihydropyrido[2,3-d]pyrimidin-2-yl)amino)pyridin-3-yl)piperazin-1-yl)ethyl)piperidin-4-yl)methyl)piperidin-1-yl)-1-oxoisoindolin-2-yl)piperidine-2,6-dione]	4150 nM	3.21 nM	–	> 10000 nM	11.5 nM	–	–	–
CC(=O)c1c(C)c2cnc(Nc3ccc(N4CCN(CCN5CCC(CC6CCN(c7ccc8c(c7)CN(C7CCC(=O)NC7=O)C8=O)CC6)CC5)CC4)cn3)nc2n(C2CCCC2)c1=O (stereo not drawn) [Compound 11, 3-(5-(4-((1-(2-(4-(6-((6-acetyl-8-cyclopentyl-5-methyl-7-oxo-7,8-dihydropyrido[2,3-d]pyrimidin-2-yl)amino)pyridin-3-yl)piperazin-1-yl)ethyl)piperidin-4-yl)methyl)piperidin-1-yl)-1-oxoisoindolin-2-yl)piperidine-2,6-dione dihydrochloride]	4440 nM	21.1 nM	–	8200 nM	24.6 nM	127 nM	> 10000 nM	–
CC(=O)c1c(C)c2cnc(Nc3ccc(N4CCN(CCN5CCN(c6ccc7c(c6Cl)CN(C6CCC(=O)NC6=O)C7=O)CC5)CC4)cn3)nc2n(C2CCCC2)c1=O (stereo not drawn) [Compound 20, 3-(5-(4-(2-(4-(6-((6-acetyl-8-cyclopentyl-5-methyl-7-oxo-7,8-dihydropyrido[2,3-d]pyrimidin-2-yl)amino)pyridin-3-yl)piperazin-1-yl)ethyl)piperazin-1-yl)-4-chloro-1-oxoisoindolin-2-yl)piperidine-2,6-dione]	3760 nM	19.6 nM	–	> 10000 nM	44.6 nM	78.3 nM	> 10000 nM	–
CC(=O)c1c(C)c2cnc(Nc3ccc(N4CCN(CCN5CCN(c6c(F)cc7c(c6F)CN(C6CCC(=O)NC6=O)C7=O)CC5)CC4)cn3)nc2n(C2CCCC2)c1=O (stereo not drawn) [Compound 22, 3-(5-(4-(2-(4-(6-((6-acetyl-8-cyclopentyl-5-methyl-7-oxo-7,8-dihydropyrido[2,3-d]pyrimidin-2-yl)amino)pyridin-3-yl)piperazin-1-yl)ethyl)piperazin-1-yl)-4,6-difluoro-1-oxoisoindolin-2-yl) piperidine-2,6-dione]	6220 nM	18.2 nM	–	> 10000 nM	27.4 nM	87.1 nM	–	> 10000 nM

Compounds with a lower IC50 (CDK9), results first:

IC50 (CDK9)	IC50 (CDK6/CyclinD3)	IC50 (CRBN)	IC50 (CDK2)	IC50 (CDK4/CyclinD3)	IC50 [1]	IC50 ([2]; Homo sapiens, MCF7, 72 h)	IC50 [2]	Structure (SMILES)
2850 nM	14.5 nM	1200 nM	9660 nM	16.1 nM	–	–	–	CC(=O)c1c(C)c2cnc(Nc3ccc(N4CCN(CCN5CCC(CN6CCN(c7ccc8c(c7)CN(C7CCC(=O)NC7=O)C8=O)CC6)CC5)CC4)cn3)nc2n(C2CCCC2)c1=O (single isomer, unassigned) [Compound 3, 3-(5-(4-((1-(2-(4-(6-((6-acetyl-8-cyclopentyl-5-methyl-7-oxo-7,8-dihydropyrido[2,3-d]pyrimidin-2-yl)amino)pyridin-3-yl)piperazin-1-yl)ethyl)piperidin-4-yl)methyl)piperazin-1-yl)-1-oxoisoindolin-2-yl)piperidine-2,6-dione]
946 nM	42.4 nM	2510 nM	1140 nM	24.2 nM	–	–	–	Cc1nc2c(F)cc(-c3nc(Nc4ccc(CN5CCN(CC(=O)N6CCC(C(=O)N7CCN(c8ccc9c(c8)CN([C@H]8CCC(=O)NC8=O)C9=O)CC7)CC6)CC5)cn4)ncc3F)cc2n1C(C)C [Compound 6, (S)-3-(5-(4-(1-(2-(4-((6-((5-fluoro-4-(4-fluoro-1-isopropyl-2-methyl-1H-benzo[d]imidazol-6-yl)pyrimidin-2-yl)amino)pyridin-3-yl)methyl)piperazin-1-yl)acetyl)piperidin-4-carbonyl)piperazin-1-yl)-1-oxoisoindolin-2-yl)piperidine-2,6-dione]
3510 nM	14.2 nM	–	> 10000 nM	19.2 nM	247 nM	> 10000 nM	–	CC(=O)c1c(C)c2cnc(Nc3ccc(N4CCN(CCN5CCC(OC6CCN(c7ccc8c(c7)CN(C7CCC(=O)NC7=O)C8=O)CC6)CC5)CC4)cn3)nc2n(C2CCCC2)c1=O (stereo not drawn) [Compound 9, 3-(5-(4-((1-(2-(4-(6-((6-acetyl-8-cyclopentyl-5-methyl-7-oxo-7,8-dihydropyrido[2,3-d]pyrimidin-2-yl)amino)pyridin-3-yl)piperazin-1-yl)ethyl)piperidin-4-yl)oxy)piperidin-1-yl)-1-oxoisoindolin-2-yl)piperidine-2,6-dione dihydrochloride]
688 nM	23.2 nM	–	1030 nM	13 nM	–	–	–	Cc1nc2c(F)cc(-c3nc(Nc4ccc(CN5CCN(CCN6CCN(c7ccc8c(c7)CN(C7CCC(=O)NC7=O)C8=O)CC6)CC5)cn4)ncc3F)cc2n1C(C)C (stereo not drawn) [Compound 12, 3-(5-(4-(2-(4-((6-((5-fluoro-4-(4-fluoro-1-isopropyl-2-methyl-1H-benzo[d]imidazol-6-yl)pyrimidin-2-yl)amino)pyridin-3-yl)methyl)piperazin-1-yl)ethyl)piperazin-1-yl)-1-oxoisoindolin-2-yl) piperidine-2,6-dione trihydrochloride]
